Laboratory results: paper PMC7534258, “Novel temporin L antimicrobial peptides: promoting self-assembling by lipidic tags to tackle superbugs” (Journal of Enzyme Inhibition and Medicinal Chemistry, 2020)
≈ marks a conversion by molar mass, not a printed value. Where a SMILES comes first, the peptide text is derived from it. [ ]: non-standard residue; d: D form. The star is where a group is joined. Heptanoyl = CCCCCCC(=O)*; Pentanoyl = CCCCC(=O)*

Experiments:
[1] = test system: K. pneumoniae ATCC BAA-1705; experiment: Broth microdilution MIC, reference strain; type: cell-based, Klebsiella pneumoniae; conditions: for MIC: Klebsiella pneumoniae, ATCCBAA1705, antibiotics, 16–18 h at 37 °C, read-out: Antimicrobial activity (MIC) K. pneumoniae ATCC BAA-1705
Protocol: (§1) Staphylococcus aureus ATCC 25923, Pseudomonas aeruginosa ATCC 27853 and Klebsiella pneumoniae ATCC BAA-1705 (carbapenemase producer) were obtained from the American Type Culture Collection (Rockville, MD).
(§2) Identification was performed by sub-culturing on Tryptic Soy Agar (TSA, Becton Dickinson) and by biochemical characterisation using the Vitek II system (Biomerieux). The antimicrobial susceptibility testing of all isolates was determined using Vitek II system and results were interpreted according to European Committee on Antimicrobial Susceptibility Testing (EUCAST version 9.0, 2019). P. aeruginosa was cultured in Brain Heart Infusion broth (BHI, OXOID), S. aureus and K. pneumoniae were cultured in Tryptic Soya broth (TSB, OXOID), under aerobic conditions at 37 °C, for 24 h on an orbital shaker at 200 rpm.
(§3) Minimal inhibitory concentrations (MIC) of all the peptides were determined in Mueller–Hinton medium by the broth microdilution assay, following the procedure already described[22]^,[34]. The compounds were added to bacterial suspension in each well yielding a final cell concentration of 1 × 10^6 CFU/ml and a final compound concentration ranging from 0.78 to 100 µM. Negative control wells were set to contain bacteria in Mueller–Hinton broth plus the amount of vehicle (ethanol) used to dilute each compound. Positive controls included vancomycin (2 µg/ml), tobramycin (4 µg/ml), gentamycin (4 µg/ml), and imipenem (8 µg/ml).

ANTS/DPX leakage assay = conditions: ANTS/DPX-loaded LUVs, Gram-positive and Gram-negative mimicking
Protocol: Large unilamellar vesicles (LUVs) and small unilamellar vesicles (SUVs) consisting of DOPG/CL (58/42 ratio in moles) and DOPG/DOPE/CL (63/23/12 ratio in moles), mimic the Gram-positive membrane and Gram-negative membrane, respectively. LUVs were prepared using the extrusion method as previously described. In particular, first lipid films were prepared by dissolving an appropriate amount of lipids in chloroform and fluorescent probes were added when necessary, then dried under a nitrogen gas stream and freeze-dried overnight. In all experiments, we used a final lipid concentration of 0.1 mM. For fluorescence experiments, buffer was added to dry lipid films and vortexed for 1 h; then the lipid suspension was freeze-thawed 6 times and extruded 10 times through polycarbonate membranes with 0.1 µm diameter pores to obtain LUVs. For circular dichroism measurements, peptide samples in SUVs were prepared as reported in the following protocol. Lipids were dissolved in chloroform and added to an equal volume of peptide solution dissolved in TFE containing appropriate peptide concentration. The samples were vortexed and lyophilised overnight. The dry samples were rehydrated with phosphate buffer 5 mM, pH 7.4 for 1 h and sonicated for 30 min.
The ANTS/DPX leakage assay was used to measure the ability of peptide to permeabilise and induce leakage of encapsulated dyes. After lipid films were prepared as previously described, ANTS (12.5 mM) and DPX (45 mM) were dissolved in 2 ml water, were added to lipid films and then lyophilised overnight. The lipid films with encapsulated ANTS and DPX were hydrated with PBS 1X buffer, vortexed for 1 h and then treated to obtain LUVs. The non-encapsulated ANTS and DPX were removed by gel filtration using a Sephadex G-50 column (1.5 cm × 10 cm) at room temperature. To start up the leakage experiment, a 2 mM peptide stock solution was prepared and LUVs were titrated with the peptide. Samples were excited at 385 nm (slit width, 5 nm) and fluorescence emission was recorded at 512 nm (slit width, 5 nm). After the addition of peptide, we evaluated leakage of encapsulated ANTS through a change in fluorescence spectra of ANTS and DPX. In particular, leakage is associated to an increase in ANTS fluorescence at 512 nm. Complete release of ANTS was obtained by using 0.1% Triton X, which caused the total destruction of liposomes. The percentage of leakage was calculated as % leakage =(Fi−F0)/(Ft−F0), where F0 represents the fluorescence of intact LUVs before the addition of peptide, and Fi and Ft denote the intensities of the fluorescence achieved after peptide and Triton-X treatment, respectively.

P. aeruginosa ATCC 27853 = experiment: Broth microdilution MIC, reference strain; type: cell-based, Pseudomonas aeruginosa; conditions: for MIC: Pseudomonas aeruginosa, ATCC27853, antibiotics, 16–18 h at 37 °C, read-out: Antimicrobial activity (MIC) P. aeruginosa ATCC 27853
Protocol: as §1, §2, §3

[2] = Critical aggregation concentration, Nile red fluorescence; type: physicochemical; conditions: aqueous solution, pH 7, Nile red, 1–200 µM peptide
Protocol: The solvatochromic fluorescent probe Nile red is widely used to determine the CAC of self-assembling peptides. […] Since Nile red is poorly soluble in water, there is a large preference to partition aggregates, which offer hydrophobic binding sites. Initially, 1 mM methanolic Nile red was prepared. Then, the methanolic Nile red was diluted with water in order to have a final concentration of 500 nM (solution A). The peptides 1B, 2B, 3B, C, were prepared as follows[39]: peptide stock solutions (0.4 mM) were prepared by dissolving the single peptides in water (1B, C) or tetrahydrofuran (3B, 2B) and sonicating for 15 min. Different aliquots were taken to prepare solutions of each peptide at different concentrations (1, 5, 10, 15, 20, 30, 50, 100 and 200 µM). Then, all solutions were diluted with water, sonicated for 15 min and freeze-dried. Finally, the peptide powders were dissolved with the right volume of solution A and allowed to stand in the dark place for 1 h before measurement. Emission spectra for each solution were measured by a Cary Eclipse Varian spectrometer. Spectra were taken between 570 and 700 nm at a slit width of 5 nm, using an excitation wavelength of 550 nm and a 10 nm slit width. The measurements were performed in triplicate. The data were analysed by plotting the maximum emission fluorescence corresponding wavelength (y) as a function of peptide concentration (x) and fitting with the sigmoidal Boltzmann equation: y=A1+A2/1+e^(x−x0/Δx)+A2 where the variables A1 and A2 correspond to the upper and lower limits of the sigmoid, x0 is the inflection point of the sigmoid and Δx is the parameter, which characterises the steepness of the function. The sigmoidal plot allows calculating the CAC value at x0.

S. aureus ATCC 25923 = experiment: microbe, parasite or virus in culture; conditions: for MIC: Staphylococcus aureus, ATCC25923, read-out: Antimicrobial activity (MIC) S. aureus ATCC 25923
Protocol: as §1, §2, §3

sheep red blood cells = type: cell-based; conditions: red cells of sheep, 24 h
Protocol: Sheep red blood cells were purchased from OXOID, SR0051D.
The haemolytic assay was conducted following the procedure described. […] Controls were erythrocytes treated with vehicle (water).

HaCaT cells = conditions: 24 h, at 6.25 µM
Protocol: The human immortalised keratinocytes HaCaT cells (AddexBio, San Diego, CA, USA) were cultured in Dulbecco’s modified Eagle’s medium containing 4 mM glutamine (DMEMg), supplemented with 10% heat-inactivated foetal bovine serum (FBS) and 0.1 mg/ml of penicillin and streptomycin, at 37 °C and 5% CO2, in 25 cm^2 or 75 cm^2 flasks[33].
The colorimetric MTT assay was carried out to measure cellular metabolic activity in terms of cell viability[33]^,[36]. Viable cells are able to reduce, by active mitochondrial dehydrogenases, the yellow salt MTT to purple formazan crystals. Briefly, 4 × 10^4 HaCaT cells, suspended in DMEMg supplemented with 2% FBS, were plated in each well of a 96-well microtiter plate. After overnight incubation, at 37 °C in a 5% CO2 atmosphere, keratinocytes were treated for 24 h with fresh serum-free medium containing the peptides 3B and C at concentrations ranging from 3.12 µM to 25 µM. Afterward, the culture medium was replaced with Hank’s buffer supplemented with 0.5 mg/ml MTT and the plate was incubated at 37 °C and 5% CO2 for 4 h. At the end, acidified isopropanol was employed to dissolve the formazan crystals. Cell viability was calculated, with respect to cells not treated with peptide, by absorbance measurements at 570 nm using a microplate reader (Infinite M200; Tecan, Salzburg, Austria)[33]. […]

KpCR1 = experiment: microbe, parasite or virus in culture; conditions: Klebsiella pneumoniae, read-out: Antimicrobial activity (MIC) KpCR1
Protocol: (§4) Clinical strains of P. aeruginosa (Pa1, Pa2 and Pa3), K. pneumoniae (KpCR1, KpCR2 and KpCR3), and S. aureus (Sa1, Sa2 and Sa3) were isolated from bloodstream or pulmonary infections, and belong to a collection of bacterial strains established between 2010 and 2018 at the Department of Molecular Medicine and Medical Biotechnologies (University Federico II, Naples) for research use.
as §2, §3

Sa3 = experiment: microbe, parasite or virus in culture; conditions: Staphylococcus aureus, MRSA, read-out: Antimicrobial activity (MIC) Sa3
Protocol: as §4, §2, §3

KpCR3 = experiment: microbe, parasite or virus in culture; conditions: Klebsiella pneumoniae, read-out: Antimicrobial activity (MIC) KpCR3
Protocol: as §4, §2, §3

Pa2 = experiment: microbe, parasite or virus in culture; conditions: Pseudomonas aeruginosa, read-out: Antimicrobial activity (MIC) Pa2
Protocol: as §4, §2, §3

Pa3 = experiment: microbe, parasite or virus in culture; conditions: Pseudomonas aeruginosa, read-out: Antimicrobial activity (MIC) Pa3
Protocol: as §4, §2, §3

Sa1 = experiment: microbe, parasite or virus in culture; conditions: Staphylococcus aureus, MRSA, read-out: Antimicrobial activity (MIC) Sa1
Protocol: as §4, §2, §3

Sa2 = experiment: microbe, parasite or virus in culture; conditions: Staphylococcus aureus, MRSA, read-out: Antimicrobial activity (MIC) Sa2
Protocol: as §4, §2, §3

Pa1 = experiment: microbe, parasite or virus in culture; conditions: Pseudomonas aeruginosa, PA1, read-out: Antimicrobial activity (MIC) Pa1
Protocol: as §4, §2, §3

KpCR2 = experiment: microbe, parasite or virus in culture; conditions: Klebsiella pneumoniae, read-out: Antimicrobial activity (MIC) KpCR2
Protocol: as §4, §2, §3

| MIC [1] [µg/mL] | MIC (P. aeruginosa ATCC 27853) [µg/mL] | MIC (S. aureus ATCC 25923) [µg/mL] | MIC (KpCR1) [µg/mL] | MIC (Sa3) [µg/mL] | MIC (KpCR3) [µg/mL] | MIC (Pa2) [µg/mL] | MIC (Pa3) [µg/mL] | MIC (Sa1) [µg/mL] | MIC (Sa2) [µg/mL] | MIC (Pa1) [µg/mL] | MIC (KpCR2) [µg/mL] | SMILES | Antimicrobial activity (MIC) K. pneumoniae ATCC BAA-1705 [1] [µM] | membrane leakage ability (in words) (ANTS/DPX leakage assay) | Antimicrobial activity (MIC) P. aeruginosa ATCC 27853 (P. aeruginosa ATCC 27853) [µM] | CAC (critical aggregation concentration) [2] [µM] | Antimicrobial activity (MIC) S. aureus ATCC 25923 (S. aureus ATCC 25923) [µM] | haemolytic potency (sheep red blood cells) | reduction in cell viability (HaCaT cells) |
| --- | --- | --- | --- | --- | --- | --- | --- | --- | --- | --- | --- | --- | --- | --- | --- | --- | --- | --- | --- |
|  |  |  |  |  |  |  |  |  |  |  |  | CCCCC(=O)N[C@@H](Cc1ccccc1)C(=O)N[C@H](C(=O)N1CCC[C@H]1C(=O)N[C@@H](Cc1c[nH]c2ccccc12)C(=O)N[C@@H](Cc1ccccc1)C(=O)N[C@@H](CO)C(=O)N[C@@H](CCCCN)C(=O)N[C@@H](Cc1ccccc1)C(=O)N[C@H](CC(C)C)C(=O)N[C@H](CCCCN)C(=O)N[C@@H](CCCNC(=N)N)C(=O)N[C@H](C(=O)N[C@@H](CC(C)C)C(N)=O)[C@@H](C)CC)C(C)C [Compound 2B, CH3(CH2)3CO-Phe-Val-Pro-Trp-Phe-Ser-Lys-Phe-DLeu-DLys-Arg-Ile-Leu-NH2] (Pentanoyl-FVPWFSKF[dL][dK]RIL-NH2) | 50 | highest leakage ability | 50 | 20.9 | 12.5 |  |  |
|  |  |  |  |  |  |  |  |  |  |  |  | CCCCCCC(=O)N[C@@H](Cc1ccccc1)C(=O)N[C@H](C(=O)N1CCC[C@H]1C(=O)N[C@@H](Cc1c[nH]c2ccccc12)C(=O)N[C@@H](Cc1ccccc1)C(=O)N[C@@H](CO)C(=O)N[C@@H](CCCCN)C(=O)N[C@@H](Cc1ccccc1)C(=O)N[C@H](CC(C)C)C(=O)N[C@H](CCCCN)C(=O)N[C@@H](CCCNC(=N)N)C(=O)N[C@H](C(=O)N[C@@H](CC(C)C)C(N)=O)[C@@H](C)CC)C(C)C [Compound 3B, CH3(CH2)5CO-Phe-Val-Pro-Trp-Phe-Ser-Lys-Phe-DLeu-DLys-Arg-Ile-Leu-NH2] (Heptanoyl-FVPWFSKF[dL][dK]RIL-NH2) | 50 | highest leakage ability | 25 | 9.33 | 3.12 | over 50% | about 50% |
| > 8 | 4 (≈ 13.4 µM) | 0.5 (≈ 1.67 µM) | > 8 | > 8 | > 8 | > 4 | > 4 | 8 (≈ 26.7 µM) | > 8 | > 4 | > 8 | C[C@@H](O)[C@H]1C(=O)N2C(C(=O)O)=C(SCCN=CN)C[C@H]12 [Imipenem] |  |  |  |  |  |  |  |
| > 4 | 4 (≈ 8.56 µM) | 1 (≈ 2.14 µM) | 2 (≈ 4.28 µM) | 1 (≈ 2.14 µM) | > 4 | 4 (≈ 8.56 µM) | 4 (≈ 8.56 µM) | 1 (≈ 2.14 µM) | < 1 | 4 (≈ 8.56 µM) | 2 (≈ 4.28 µM) | NC[C@H]1O[C@H](O[C@H]2[C@H](O)[C@@H](O[C@H]3O[C@H](CO)[C@@H](O)[C@H](N)[C@H]3O)[C@H](N)C[C@@H]2N)[C@H](N)C[C@@H]1O [Tobramycin] |  |  |  |  |  |  |  |
